pIC50: −log10 of the molar value.
Each molecule was assayed against T1, γ-secretase (Homo sapiens, UniProt P49768) (assay: in vitro γ-secretase assay (HEK293 membrane fraction, recombinant APP substrate, Abeta ELISA)). Conditions: γ-secretase inhibition.
T1 construct: uses a HEK293 membrane fraction as a source of γ-secretase; endogenous in cells; host or cells: HEK293 (microsomal membrane fraction, solubilised in 0.25% CHAPSO)
Assay type: biochemical
Excerpt: Description of γ-Secretase Assay
The activity of test compounds can be evaluated in assays which measure the proteolytic cleavage of suitable substrates by γ-secretase activity. These can be cellular assays where e.g., a substrate of the γ-secretase is fused in its cytoplasmic domain to a transcription factor. Cells are transfected with this fusion gene and a reporter gene, e.g., firefly luciferase, which expression is enhanced by the transcription factor. Cleavage of the fused substrate by γ-secretase will lead to expression of the reporter gene which can be monitored in appropriate assays. The γ-secretase activity can also be determined in cell-free in vitro asays where e.g., a cell lysate containing the γ-secretase complex is incubated with a suitable APP-derived substrate which is cleaved to the Abeta peptides. The amount of produced peptides can be determined with specific ELISA assays. Cell lines of neuronal origin secrete Abeta peptides which can be measured with the specific ELISA assay. Treatment with compounds which inhibit γ-secretase leads to a reduction of secreted Abeta thus providing a measure of inhibition.
The in vitro assay of γ-secretase activity uses a HEK293 membrane fraction as a source of γ-secretase and a recombinant APP substrate. Latter consist of the C-terminal 100 amino acids of human APP fused to a 6× Histidin tail for purification which is expressed in E. coli in a regulatable expression vector, e.g. pEt15. This recombinant protein corresponds to the truncated APP fragment which results after […] of the extracellular domain and which constitutes the γ-secretase substrate. […] Hek293 cells are mechanically disrupted and the microsomal fraction is isolated by differential centrifugation.
A pIC50 of 6.72 was found for COC(=O)c1ccc(CN(C2CCCCNC2=O)S(=O)(=O)c2ccc(Cl)cc2)c(F)c1 (racemic) [Example 203, rac-4-{[(4-Chloro-benzenesulfonyl)-(2-oxo-azepan-3-yl)-amino]-methyl}-3-fluoro-benzoic acid methyl ester] in this work.

Same assay, conditions: γ-secretase inhibition, table head prints none
A pIC50 of 6.82 was found for COc1ccc(CN(C2CCCCNC2=O)S(=O)(=O)c2ccc(Br)cc2)cc1F (racemic) [Example 28, rac-4-Bromo-N-(3-fluoro-4-methoxy-benzyl)-N-(2-oxo-azepan-3-yl)-benzenesulfonamide] in this work. A pIC50 of 7.52 was found for CC(C)C1CCNC(=O)C(N(Cc2ccc(C(=O)NC3CC3)cc2)S(=O)(=O)c2ccc(Cl)cc2)C1 (racemic) [Example 43, rac-4-{[(4-Chloro-benzenesulfonyl)-(5-isopropyl-2-oxo-azepan-3-yl)-amino]-methyl}-N-cyclopropyl-benzamide] in this work. A pIC50 of 6.89 was found for COC(=O)c1ccc(CN(C2CCCCNC2=O)S(=O)(=O)c2ccc(Cl)cc2)cc1 (racemic) [Example 57, rac-4-{[(4-Chloro-benzenesulfonyl)-(2-oxo-azepan-3-yl)-amino]-methyl}-benzoic acid methyl ester] in this work. A pIC50 of 6.72 was found for O=C(NC1CC1)c1ccc(CN(C2CCCCNC2=O)S(=O)(=O)c2ccc(Cl)cc2)cc1 (racemic) [Example 75, rac-4-{[(4-Chloro-benzenesulfonyl)-(2-oxo-azepan-3-yl)-amino]-methyl}-N-cyclopropyl-benzamide] in this work. A pIC50 of 8.00 was found for COC(=O)c1ccc(CN(C2CC(C)(C)CCNC2=O)S(=O)(=O)c2ccc(Cl)cc2)cc1 (racemic) [Example 138, Rac-4-{[(4-Chloro-benzenesulfonyl)-(5,5-dimethyl-2-oxo-azepan-3-yl)-amino]-methyl}-benzoic acid methyl ester] in this work. A pIC50 of 7.70 was found for CC1(C)CCNC(=O)C(N(Cc2ccc(C(=O)NCCF)cc2)S(=O)(=O)c2ccc(Cl)cc2)C1 (racemic) [Example 140, rac-4-{[(4-Chloro-benzenesulfonyl)-(5,5-dimethyl-2-oxo-azepan-3-yl)-amino]-methyl}-N-(2-fluoro-ethyl)-benzamide] in this work. A pIC50 of 7.70 was found for CC1(C)CCNC(=O)C(N(Cc2ccc(C(=O)NCC(F)(F)F)cc2)S(=O)(=O)c2ccc(Cl)cc2)C1 (racemic) [Example 141, rac-4-{[(4-Chloro-benzenesulfonyl)-(5,5-dimethyl-2-oxo-azepan-3-yl)-amino]-methyl}-N-(2,2,2-trifluoro-ethyl)-benzamide] in this work. A pIC50 of 7.70 was found for CC1(C)CCNC(=O)C(N(Cc2ccc(C(=O)N[C@@H]3C[C@@H]3F)cc2)S(=O)(=O)c2ccc(Cl)cc2)C1 (mixture of isomers) [Example 142, rac-4-{[(4-Chloro-benzenesulfonyl)-(5,5-dimethyl-2-oxo-azepan-3-yl)-amino]-methyl}-N-((1R,2S)-2-fluoro-cyclopropyl)-benzamide] in this work. A pIC50 of 7.40 was found for CC1(C)CCNC(=O)C(N(Cc2ccc(C(=O)NCCO)cc2)S(=O)(=O)c2ccc(Cl)cc2)C1 (racemic) [Example 143, rac-4-{[(4-Chloro-benzenesulfonyl)-(5,5-dimethyl-2-oxo-azepan-3-yl)-amino]-methyl}-N-(2-hydroxy-ethyl)-benzamide] in this work. A pIC50 of 7.30 was found for CC1(C)CCNC(=O)C(N(Cc2ccc(C(=O)NC3CCCC3)cc2)S(=O)(=O)c2ccc(Cl)cc2)C1 (racemic) [Example 144, rac-4-{[(4-Chloro-benzenesulfonyl)-(5,5-dimethyl-2-oxo-azepan-3-yl)-amino]-methyl}-N-cyclopentyl-benzamide] in this work. A pIC50 of 8.00 was found for CNC(=O)c1ccc(CN(C2CC(C)(C)CCNC2=O)S(=O)(=O)c2ccc(Cl)cc2)cc1 (racemic) [Example 145, rac-4-{[(4-Chloro-benzenesulfonyl)-(5,5-dimethyl-2-oxo-azepan-3-yl)-amino]-methyl}-N-methyl-benzamide] in this work. A pIC50 of 7.70 was found for CC1(C)CCNC(=O)C(N(Cc2ccc(C(N)=O)cc2)S(=O)(=O)c2ccc(Cl)cc2)C1 (racemic) [Example 146, rac-4-{[(4-Chloro-benzenesulfonyl)-(5,5-dimethyl-2-oxo-azepan-3-yl)-amino]-methyl}-benzamide] in this work. A pIC50 of 7.70 was found for CC1(C)CCNC(=O)C(N(Cc2ccc(C(=O)NCc3ccccc3)cc2)S(=O)(=O)c2ccc(Cl)cc2)C1 (racemic) [Example 147, rac-N-Benzyl-4-{[(4-chloro-benzenesulfonyl)-(5,5-dimethyl-2-oxo-azepan-3-yl)-amino]-methyl}-benzamide] in this work. A pIC50 of 7.70 was found for COC(=O)CNC(=O)c1ccc(CN(C2CC(C)(C)CCNC2=O)S(=O)(=O)c2ccc(Cl)cc2)cc1 (racemic) [Example 148, rac-(4-{[(4-Chloro-benzenesulfonyl)-(5,5-dimethyl-2-oxo-azepan-3-yl)-amino]-methyl}-benzoylamino)-acetic acid methyl ester] in this work. A pIC50 of 6.82 was found for CC1(C)CCNC(=O)C(N(Cc2ccc(C(=O)NCCN3CCOCC3)cc2)S(=O)(=O)c2ccc(Cl)cc2)C1 (racemic) [Example 149, rac-4-{[(4-Chloro-benzenesulfonyl)-(5,5-dimethyl-2-oxo-azepan-3-yl)-amino]-methyl}-N-(2-morpholin-4-yl-ethyl)-benzamide] in this work. A pIC50 of 7.00 was found for CC1(C)CCNC(=O)C(N(Cc2ccc(-c3nn[nH]n3)cc2)S(=O)(=O)c2ccc(Cl)cc2)C1 (racemic) [Example 150, rac-4-Chloro-N-(5,5-dimethyl-2-oxo-azepan-3-yl)-N-[4-(2H-tetrazol-5-yl)-benzyl]-benzenesulfonamide] in this work. A pIC50 of 7.70 was found for CC(=O)Nc1ccc(CN(C2CC(C)(C)CCNC2=O)S(=O)(=O)c2ccc(Cl)cc2)cc1 (racemic) [Example 152, rac-N-(4-{[(4-Chloro-benzenesulfonyl)-(5,5-dimethyl-2-oxo-azepan-3-yl)-amino]-methyl}-phenyl)-acetamide] in this work. A pIC50 of 6.57 was found for CCOC(=O)CC(=O)Nc1ccc(CN(C2CCCCNC2=O)S(=O)(=O)c2ccc(Cl)cc2)cc1 (racemic) [Example 165, Rac-N-(4-{[(4-Chloro-benzenesulfonyl)-(2-oxo-azepan-3-yl)-amino]-methyl}-phenyl)-malonamic acid ethyl ester] in this work. A pIC50 of 6.64 was found for O=C1NCCCCC1N(Cc1ccc(C(F)F)cc1)S(=O)(=O)c1ccc(Cl)cc1 (racemic) [Example 172, Rac-4-Chloro-N-(4-difluoromethyl-benzyl)-N-(2-oxo-azepan-3-yl)-benzenesulfonamide] in this work. A pIC50 of 6.82 was found for NC(=O)c1ccc(CN([C@@H]2CCCCNC2=O)S(=O)(=O)c2ccc(Cl)cc2)cc1 [Example 2, 4-{[(4-Chloro-benzenesulfonyl)-((R)-2-oxo-azepan-3-yl)-amino]-methyl}-benzamide] in this work. A pIC50 of 6.59 was found for CC(C)C1CCNC(=O)C(N(Cc2ccc(C(N)=O)cc2)S(=O)(=O)c2ccc(Cl)cc2)C1 (stereo not drawn) [Example 4, 4-{[(4-Chloro-benzenesulfonyl)-(5-isopropyl-2-oxo-azepan-3-yl)-amino]-methyl}-benzamide] in this work. A pIC50 of 6.85 was found for COC(=O)c1ccc(CN([C@@H]2CCCCNC2=O)S(=O)(=O)c2ccc(Cl)cc2)c(F)c1 [Example 34, 4-{[(4-Chloro-benzenesulfonyl)-((R)-2-oxo-azepan-3-yl)-amino]-methyl}-3-fluoro-benzoic acid methyl ester] in this work. A pIC50 of 7.05 was found for CCOC(=O)c1ccc(CN([C@@H]2CCCCNC2=O)S(=O)(=O)c2ccc(Cl)cc2)cc1 [Example 35, 4-{[(4-Chloro-benzenesulfonyl)-((R)-2-oxo-azepan-3-yl)-amino]-methyl}-benzoic acid ethyl ester] in this work.

— patent US7253158B2, “Sulfonamides” (Hoffmann-La Roche Inc., priority 2004, dated 2007)
